In PubChem BioAssay (NCI):
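The compound was tested at five concentrations on cells cultured in 96-well plates, with a 48-hour exposure period. TGI marks complete inhibition of growth.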 *1 amine or outer side, *2 acyl side, *3 side chain or, on linkers, in order; H or OH if unused. Where a SMILES comes first, the peptide text is derived from it. Bridges are numbered along the chain shown (N, C = ends). [ ]: non-standard residue; d: D form. ξ: configuration not given here. X35 = CC[C@H](C)[C@@H](N[*:1])[C@@H](O)CC(=O)O[C@H](C(=O)[C@H](C)C(=O)[*:2])C(C)C; NMeY = CN[C@@H](Cc1ccc(O)cc1)C(=O)O; dNMeL = CN[C@H](CC(C)C)C(=O)O; ξΔPro = O=C(O)C1C=CCN1

Key:
Experiment in all cases: NCI tumour cell line growth inhibition, 48 h
CAKI-1 renal = test system: CAKI-1 renal
DU-145 prostate = test system: DU-145 prostate
EKVX NSCLC = test system: EKVX NSCLC
HL-60(TB) leukemia = test system: HL-60(TB) leukemia
MALME-3M melanoma = test system: MALME-3M melanoma
NCI-H226 lung = test system: NCI-H226 lung
SK-OV-3 ovarian = test system: SK-OV-3 ovarian
SNB-75 CNS = test system: SNB-75 CNS
TK-10 renal = test system: TK-10 renal
UACC-62 melanoma = test system: UACC-62 melanoma

CC(=O)Nc1ccc(/C=C2/NC(=S)N(/C=C3\C(=O)Oc4ccccc4C3=O)C2=O)cc1
TGI (CAKI-1 renal): > 100 µM | TGI (DU-145 prostate): > 100 µM | TGI (EKVX NSCLC): > 100 µM | TGI (HL-60(TB) leukemia): > 100 µM | TGI (MALME-3M melanoma): > 100 µM | TGI (NCI-H226 lung): > 100 µM | TGI (SK-OV-3 ovarian): > 100 µM | TGI (SNB-75 CNS): 63.1 µM | TGI (TK-10 renal): > 100 µM | TGI (UACC-62 melanoma): > 100 µM

Clc1nc2c(C#Cc3ccccc3)ncnc2n1C1CCCCO1 (stereo not given)
TGI (CAKI-1 renal): 28.1 µM | TGI (DU-145 prostate): 63.2 µM | TGI (EKVX NSCLC): 12.4 µM | TGI (HL-60(TB) leukemia): 33.7 µM | TGI (MALME-3M melanoma): 41.7 µM | TGI (NCI-H226 lung): > 100 µM | TGI (SK-OV-3 ovarian): > 100 µM | TGI (SNB-75 CNS): > 100 µM | TGI (TK-10 renal): 53 µM | TGI (UACC-62 melanoma): 27 µM

CC(C)(Cc1ccccc1)N1C(=O)N1C(C)(C)Cc1ccccc1
TGI (CAKI-1 renal): > 100 µM | TGI (DU-145 prostate): > 100 µM | TGI (EKVX NSCLC): > 100 µM | TGI (HL-60(TB) leukemia): 41.7 µM | TGI (MALME-3M melanoma): 98.4 µM | TGI (NCI-H226 lung): 46 µM | TGI (SK-OV-3 ovarian): > 100 µM | TGI (SNB-75 CNS): > 100 µM | TGI (TK-10 renal): > 100 µM | TGI (UACC-62 melanoma): > 100 µM

CC[C@H](C)[C@H]1NC(=O)[C@@H](NC(=O)[C@@H](CC(C)C)N(C)C(=O)C2C=CCN2)[C@@H](C)OC(=O)[C@H](Cc2ccc(OC)cc2)N(C)C(=O)[C@@H]2CCCN2C(=O)[C@H](CC(C)C)NC(=O)[C@@H](C)C(=O)[C@H](C(C)C)OC(=O)C[C@@H]1O (stereo not given in full) (H-[ξΔPro][dNMeL]T[X35]LP[NMeY](Me); ester 3-C)
TGI (CAKI-1 renal): 0.378 µM | TGI (DU-145 prostate): 0.251 µM | TGI (EKVX NSCLC): 0.168 µM | TGI (HL-60(TB) leukemia): > 50 µM | TGI (MALME-3M melanoma): 0.0146 µM | TGI (NCI-H226 lung): < 0.005 µM | TGI (SK-OV-3 ovarian): 0.183 µM | TGI (SNB-75 CNS): 0.0107 µM | TGI (TK-10 renal): 0.0516 µM | TGI (UACC-62 melanoma): 0.00602 µM

CC(C#N)N(CCc1ccccc1)C(=O)c1ccccc1 (stereo not given)
TGI (CAKI-1 renal): > 100 µM | TGI (DU-145 prostate): > 100 µM | TGI (EKVX NSCLC): > 100 µM | TGI (HL-60(TB) leukemia): > 100 µM | TGI (MALME-3M melanoma): > 100 µM | TGI (NCI-H226 lung): > 100 µM | TGI (SK-OV-3 ovarian): > 100 µM | TGI (SNB-75 CNS): > 100 µM | TGI (TK-10 renal): > 100 µM | TGI (UACC-62 melanoma): > 100 µM

COC(=O)c1cc(C)ccc1C1CN=NC12Cc1c(C)cc(C)cc1C2=O (stereo not given)
TGI (CAKI-1 renal): > 100 µM | TGI (DU-145 prostate): > 100 µM | TGI (EKVX NSCLC): > 100 µM | TGI (HL-60(TB) leukemia): 29.3 µM | TGI (MALME-3M melanoma): 60.6 µM | TGI (NCI-H226 lung): 87.6 µM | TGI (SK-OV-3 ovarian): 69 µM | TGI (SNB-75 CNS): 66.8 µM | TGI (TK-10 renal): 82.5 µM | TGI (UACC-62 melanoma): 49.6 µM

CC(C)(C)C(=O)N1CCN(C=O)C1=S
TGI (CAKI-1 renal): > 100 µM | TGI (DU-145 prostate): > 100 µM | TGI (EKVX NSCLC): > 100 µM | TGI (HL-60(TB) leukemia): > 100 µM | TGI (MALME-3M melanoma): > 100 µM | TGI (NCI-H226 lung): > 100 µM | TGI (SK-OV-3 ovarian): > 100 µM | TGI (SNB-75 CNS): 90.6 µM | TGI (TK-10 renal): > 100 µM | TGI (UACC-62 melanoma): > 100 µM

CCN1CCCn2c(=O)[nH]c3cc(Br)cc1c32
TGI (CAKI-1 renal): > 100 µM | TGI (DU-145 prostate): > 100 µM | TGI (EKVX NSCLC): > 100 µM | TGI (HL-60(TB) leukemia): > 100 µM | TGI (MALME-3M melanoma): > 100 µM | TGI (NCI-H226 lung): > 100 µM | TGI (SK-OV-3 ovarian): > 100 µM | TGI (SNB-75 CNS): 43.2 µM | TGI (TK-10 renal): > 100 µM | TGI (UACC-62 melanoma): > 100 µM

COc1cc2oc(-c3ccc4c(c3)OCO4)c(OC)c(=O)c2c(O)c1OC
TGI (CAKI-1 renal): > 50 µM | TGI (DU-145 prostate): > 50 µM | TGI (EKVX NSCLC): > 50 µM | TGI (HL-60(TB) leukemia): > 50 µM | TGI (MALME-3M melanoma): > 50 µM | TGI (NCI-H226 lung): > 50 µM | TGI (SK-OV-3 ovarian): > 50 µM | TGI (SNB-75 CNS): > 50 µM | TGI (TK-10 renal): > 50 µM | TGI (UACC-62 melanoma): > 50 µM

CNC(=O)N(CCC#N)CCCN(C(=O)N(C)C)c1ccccc1
TGI (CAKI-1 renal): > 100 µM | TGI (DU-145 prostate): > 100 µM | TGI (EKVX NSCLC): > 100 µM | TGI (HL-60(TB) leukemia): > 100 µM | TGI (MALME-3M melanoma): > 100 µM | TGI (NCI-H226 lung): > 100 µM | TGI (SK-OV-3 ovarian): > 100 µM | TGI (SNB-75 CNS): > 100 µM | TGI (TK-10 renal): > 100 µM | TGI (UACC-62 melanoma): > 100 µM

O=C1/C(=C/c2ccc(O)cc2)CCC1CNc1ccccc1 (stereo not given)
TGI (CAKI-1 renal): 26.5 µM | TGI (DU-145 prostate): 16.9 µM | TGI (EKVX NSCLC): 33.6 µM | TGI (HL-60(TB) leukemia): 4.91 µM | TGI (MALME-3M melanoma): 30.6 µM | TGI (NCI-H226 lung): 37.9 µM | TGI (SK-OV-3 ovarian): 43.9 µM | TGI (SNB-75 CNS): 41.2 µM | TGI (TK-10 renal): 24.3 µM | TGI (UACC-62 melanoma): 28.7 µM

O=P(O)(O)C=C=C1CCCCC1
TGI (CAKI-1 renal): > 100 µM | TGI (DU-145 prostate): > 100 µM | TGI (EKVX NSCLC): > 100 µM | TGI (HL-60(TB) leukemia): > 100 µM | TGI (MALME-3M melanoma): > 100 µM | TGI (NCI-H226 lung): > 100 µM | TGI (SK-OV-3 ovarian): > 100 µM | TGI (SNB-75 CNS): > 100 µM | TGI (TK-10 renal): > 100 µM | TGI (UACC-62 melanoma): > 100 µM

O=C(O)CCSC1=NCCN1
TGI (CAKI-1 renal): > 100 µM | TGI (DU-145 prostate): > 100 µM | TGI (EKVX NSCLC): > 100 µM | TGI (HL-60(TB) leukemia): > 100 µM | TGI (MALME-3M melanoma): > 100 µM | TGI (NCI-H226 lung): > 100 µM | TGI (SK-OV-3 ovarian): > 100 µM | TGI (SNB-75 CNS): > 100 µM | TGI (TK-10 renal): > 100 µM | TGI (UACC-62 melanoma): > 100 µM

O=[N+]([O-])c1cc(F)ccc1Sc1ccccc1
TGI (CAKI-1 renal): > 10 µM | TGI (DU-145 prostate): > 10 µM | TGI (EKVX NSCLC): > 10 µM | TGI (HL-60(TB) leukemia): > 10 µM | TGI (MALME-3M melanoma): > 10 µM | TGI (NCI-H226 lung): > 10 µM | TGI (SK-OV-3 ovarian): > 10 µM | TGI (SNB-75 CNS): > 10 µM | TGI (TK-10 renal): > 10 µM | TGI (UACC-62 melanoma): > 10 µM

COc1ccccc1NC(=S)N/N=C/c1ccccn1
TGI (CAKI-1 renal): 16.8 µM | TGI (DU-145 prostate): 19 µM | TGI (EKVX NSCLC): 5.08 µM | TGI (HL-60(TB) leukemia): 0.693 µM | TGI (MALME-3M melanoma): > 24.3 µM | TGI (NCI-H226 lung): > 35.9 µM | TGI (SK-OV-3 ovarian): 34.8 µM | TGI (SNB-75 CNS): 24.4 µM | TGI (TK-10 renal): > 46.4 µM | TGI (UACC-62 melanoma): 3.75 µM

O=C1C(Cl)=C(c2ccc([N+](=O)[O-])cc2)C(=O)c2c(O)cccc21
TGI (CAKI-1 renal): 3.86 µM | TGI (DU-145 prostate): 19.4 µM | TGI (EKVX NSCLC): 33.4 µM | TGI (HL-60(TB) leukemia): > 100 µM | TGI (MALME-3M melanoma): 4.49 µM | TGI (NCI-H226 lung): 5.74 µM | TGI (SK-OV-3 ovarian): 8.64 µM | TGI (SNB-75 CNS): 7.13 µM | TGI (TK-10 renal): 10.7 µM | TGI (UACC-62 melanoma): 1.98 µM
